Results as given in paper PMC5125710, “Mechanistic Studies and Modeling Reveal the Origin of Differential Inhibition of Gag Polymorphic Viruses by HIV-1 Maturation Inhibitors” (PLoS Pathogens, 2016).
Where “and” joins values, the source holds several entries; their conditions need not be identical. Equal values may be shown once. Read-outs that look alike come from different tables or passages of the source.

Key:
[1] = tested on: HIV-1 NLRepRlucP373S V362I; assay: microbe, parasite or virus in culture; assay type: cell-based; details: for EC50: Human immunodeficiency virus 1, V362I virus; for log10 reduction in virus, multiple cycle antiviral assay, maximal inhibition: V362I, calculated from MC MPI
[2] = tested on: HIV-1 NLRepRlucP373S V370M; assay: microbe, parasite or virus in culture; assay type: cell-based; details: for EC50: Human immunodeficiency virus 1, MC assay
[3] = tested on: HIV-1 NLRepRlucP373S ΔV370; assay: microbe, parasite or virus in culture; assay type: cell-based; details: for EC50: Human immunodeficiency virus 1; for log10 reduction in virus, multiple cycle antiviral assay, maximal inhibition: ΔV370, calculated from MC MPI
[4] = tested on: HIV-1 NLRepRlucP373S V370A/Δ371T; assay: microbe, parasite or virus in culture; assay type: cell-based; details: for EC50: Human immunodeficiency virus 1, MC assay
[5] = tested on: HIV-1 NLRepRlucP373S T371A; assay: microbe, parasite or virus in culture; assay type: cell-based; details: Human immunodeficiency virus 1, MC assay
[6] = tested on: HIV-1 NLRepRlucP373S ΔT371; assay: microbe, parasite or virus in culture; assay type: cell-based; details: for EC50: Human immunodeficiency virus 1, MC assay
WT HIV-1 Gag VLPs = biological target: T1, WT HIV-1 Gag VLPs (Human immunodeficiency virus type 1 group M subtype B, UniProt P03348); assay: SPA radiolabeled competition binding assay, WT VLPs; parameters: Kd FC vs. WT: unit not given beside the values
T1 construct: constructed to encode full length HIV-1 LAI Gag; made in house; host or cells: 293T cells, transfected with pGagOpt plasmid; VLPs pelleted from supernatant

V362I HIV-1 Gag VLPs = biological target: T2, V362I HIV-1 Gag VLPs (Human immunodeficiency virus type 1 group M subtype B, UniProt P03348, V362I); assay: biochemical; assay type: binding; parameters: Kd FC vs. WT: unit not given beside the values
T2 construct: constructed to encode full length HIV-1 LAI Gag; made in house; host or cells: 293T cells, transfected with pGagOpt plasmid

V370A HIV-1 Gag VLPs = biological target: T3, V370A HIV-1 Gag VLPs (Human immunodeficiency virus type 1 group M subtype B, UniProt P03348, V370A); assay: biochemical; assay type: binding; parameters: Kd FC vs. WT: unit not given beside the values
T3 construct: constructed to encode full length HIV-1 LAI Gag; made in house; host or cells: 293T cells, transfected with pGagOpt plasmid

[7] = tested on: LAI pseudotyped NLRepRlucP373 Δenv; assay type: cell-based; details: for Inhibition of luciferase production: compound added only at the infection stage (second step); for Inhibition of luciferase activity in the infection stage: compound added at the transfection step (first step)
[8] = tested on: HIV-1 NLRepRlucP373S (WT); assay: microbe, parasite or virus in culture; assay type: cell-based; details: for MC Assay MPI (%): maximal percent inhibition at two highest drug concentrations
[9] = tested on: HIV-1 NLRepRlucP373S V370A; assay: microbe, parasite or virus in culture; assay type: cell-based; details: for EC50: Human immunodeficiency virus 1, V370A virus; for log10 reduction in virus, multiple cycle antiviral assay, maximal inhibition: V370A, calculated from MC MPI
[10] = tested on: HIV-1 NLRepRlucP373S (WT); assay type: cell-based; details: for SC Assay MPI (%): WT virus; for log10 reduction in virus, single cycle antiviral assay, maximal inhibition: WT, calculated from SC MPI
[11] = tested on: HIV-1 NLRepRlucP373S V370A; assay type: cell-based; details: for SC Assay MPI (%): V370A virus; for log10 reduction in virus, single cycle antiviral assay, maximal inhibition: V370A, calculated from SC MPI
[12] = tested on: HIV-1 NLRepRlucP373S ΔV370; assay type: cell-based; details: for log10 reduction in virus, single cycle antiviral assay, maximal inhibition: ΔV370, calculated from SC MPI; for SC Assay MPI (%): ΔV370 virus
ΔV370 HIV-1 Gag VLPs = ΔV370 HIV-1 Gag VLPs (Human immunodeficiency virus type 1 group M subtype B, UniProt P03348, DEL370-370); assay: SPA radiolabeled competition binding assay, ΔV370 VLPs; parameters: Kd FC vs. WT: unit not given beside the values; details: for Kd FC vs. WT: ΔV370 VLP
[13] = biological target: T4, CA/SP1 cleavage of WT Gag VLPs by HIV-1 protease (Human immunodeficiency virus type 1 group M subtype B, UniProt P03348); assay type: biochemical; details: 3 μM MI
T4 construct: constructed to encode full length HIV-1 LAI Gag; made in house; host or cells: Gag VLPs from transfected 293T cells

[14] = biological target: CA/SP1 cleavage of ΔV370 Gag VLPs by HIV-1 protease (Human immunodeficiency virus type 1 group M subtype B, UniProt P03348, DEL370-370); assay: HIV-1 VLP protease cleavage assay (LC/MS), ΔV370 VLPs; assay type: biochemical; details: 3 μM MI
[15] = from mean C24 and free fraction of 0.14
HIV-1 = details: cited from earlier work
[16] = tested on: HIV-1 NLRepRlucP373S Q369H; assay: microbe, parasite or virus in culture; assay type: cell-based; details: Human immunodeficiency virus 1, MC assay

Row | SMILES | EC50 ([1]; MC assay) | MC Assay MPI (%) ([1]; V362I virus) | EC50 [2] | EC50 ([3]; ΔV370 virus, MC assay) | MC Assay MPI (%) ([3]; ΔV370 virus) | EC50 [4] | EC50 [5] | EC50 [6] | Kd FC vs. WT (WT HIV-1 Gag VLPs; WT VLP) | Kd FC vs. WT (V362I HIV-1 Gag VLPs; V362I VLP) | Kd FC vs. WT (V370A HIV-1 Gag VLPs; V370A VLP) | Inhibition of luciferase production [7] | MC Assay MPI (%) ([8]; WT virus) | log10 reduction in virus, multiple cycle antiviral assay, maximal inhibition [1] | EC50 ([9]; MC assay) | MC Assay MPI (%) ([9]; V370A virus) | log10 reduction in virus, multiple cycle antiviral assay, maximal inhibition [9] | SC Assay MPI (%) [10] | SC Assay MPI (%) [11] | Inhibition of luciferase activity in the infection stage [7] | further results
1 | C=C(C)[C@@H]1CC[C@]2(C(=O)O)CC[C@]3(C)[C@H](CC[C@@H]4[C@@]5(C)CC=C(c6ccc(C(=O)O)cc6)C(C)(C)[C@@H]5CC[C@]43C)[C@@H]12 [BMS-1] | 213 nM | 71.4 +/- 5.4% and 71.4% | > 4000 nM | > 6000 nM | 3.7 +/- 2.9% and 3.7% | > 10000 nM | 28 nM | 292 nM | 1.0 | 1.9 | 7.0 |  |  |  |  |  |  |  |  |  | Kd (WT HIV-1 Gag VLPs; WT VLP, competition displacement of [3H]-BMS-977660, read-out: Kd): 25.4 nM; Kd (V362I HIV-1 Gag VLPs; V362I VLP, competition displacement of [3H]-BMS-977660, read-out: Kd): 49 nM; Kd (V370A HIV-1 Gag VLPs; V370A VLP, competition displacement of [3H]-BMS-977660, read-out: Kd): 177 nM
2 | COc1ccnc2[nH]cc(C(=O)C(=O)N3CCN(C(=O)c4ccccc4)C[C@H]3C)c12 [BMS-378806, 4-benzoyl-1-[(4-methoxy-1H-pyrrolo[2,3-b]pyridin-3-yl)oxoacetyl]-2-(R)-methylpiperazine] |  |  |  |  |  |  |  |  |  |  |  | fully active |  |  |  |  |  |  |  |  | 
3 | C=C(C)[C@@H]1CC[C@]2(NCCN3CCS(=O)(=O)CC3)CC[C@]3(C)[C@H](CC[C@@H]4[C@@]5(C)CC=C(c6ccc(C(=O)O)cc6)C(C)(C)[C@@H]5CC[C@]43C)[C@@H]12 [BMS-955176] | 4.5 nM | 93.8 +/- 1.8% and 93.8% | 2.8 nM | 13 nM | 91.9 +/- 4.4% and 92% and 91.9% | 6.6 nM | 2 nM | 7.3 nM | 1.0 | 1.3 | 2 |  | 100 +/- 0.4% and 100% | -1.20 log10 | 2.7 nM | 98.2 +/- 1.3% and 98.2% | -1.73 log10 | 93.0 +/- 2.5% and 93% | 76.5 +/- 3.0% and 76.5% | inhibiting luciferase production only when added in the first step | log10 reduction in virus, multiple cycle antiviral assay, maximal inhibition ([8]; WT, calculated from MC MPI): < -2.00 log10; log10 reduction in virus, multiple cycle antiviral assay, maximal inhibition [3]: -1.09 log10; log10 reduction in virus, single cycle antiviral assay, maximal inhibition [10]: -1.15 log10; log10 reduction in virus, single cycle antiviral assay, maximal inhibition [11]: -0.64 log10; log10 reduction in virus, single cycle antiviral assay, maximal inhibition [12]: -0.27 log10; SC Assay MPI (%) [12]: 45.9%; Kd (WT HIV-1 Gag VLPs): 3.2 nM; Kd (V362I HIV-1 Gag VLPs): 4.3 nM; Kd (V370A HIV-1 Gag VLPs): 6.5 nM; Kd (ΔV370 HIV-1 Gag VLPs): 33.6 nM; Kd FC vs. WT (ΔV370 HIV-1 Gag VLPs): 10; Inhibition of CA/SP1 cleavage ([13]; 4 hours): sustained inhibition; Inhibition of CA/SP1 cleavage ([14]; 4 hour time point): 13%; Mean free concentration [15]: 213 nM; Clinical VLR, maximal median HIV-1 log10 RNA reduction (HIV-1; subtype B Gag polymorphs (compared to V370A, V362I), 40 mg): -1.71 log10; Clinical VLR, maximal median HIV-1 log10 RNA reduction (HIV-1; subtype B WT genotype, 40 mg QD, 10 day monotherapy): -1.75 log10; Clinical VLR, maximal median HIV-1 log10 RNA reduction (HIV-1; subtype C viruses (compared to ΔV370), 40 mg): -1.35 log10
4 | C=C(C)[C@@H]1CC[C@]2(C(=O)O)CC[C@]3(C)[C@H](CC[C@@H]4[C@@]5(C)CC[C@H](OC(=O)CC(C)(C)C(=O)O)C(C)(C)[C@@H]5CC[C@]43C)[C@@H]12 [BVM, bevirimat, reference compound] |  | 81.3 +/- 2.0% and 81.3% |  | > 10000 nM | 9.2+/- 6.3% and 9% and 9.2% |  | 40 nM |  | 1.0 | 2.9 | 9.1 |  |  | -0.73 log10 |  | 65.4 +/- 3.8% and 65.4% | -0.46 log10 | 82.3 +/- 2.7% and 82% and 82.3% | 19% and 19.0 +/- 3.5% | inhibiting luciferase production only when added in the first step | EC50 [16]: 7 nM; log10 reduction in virus, multiple cycle antiviral assay, maximal inhibition [3]: -0.04 log10; log10 reduction in virus, single cycle antiviral assay, maximal inhibition [10]: -0.71 log10; log10 reduction in virus, single cycle antiviral assay, maximal inhibition [11]: -0.08 log10; log10 reduction in virus, single cycle antiviral assay, maximal inhibition [12]: 0.06 log10; SC Assay MPI (%) [12]: -26% and -25.6%; Kd FC vs. WT (ΔV370 HIV-1 Gag VLPs): 48; Inhibition of CA/SP1 cleavage ([13]; 2 hours): 39%; Inhibition of CA/SP1 cleavage ([13]; 4 hours): 1%; Inhibition of CA/SP1 cleavage ([14]; whole time course): not inhibitory at any time point
5 | Cc1c(O)cccc1C(=O)N[C@@H](CSc1ccccc1)[C@H](O)CN1C[C@H]2CCCC[C@H]2C[C@H]1C(=O)NC(C)(C)C [NFV, nelfinavir, reference compound] | 4.3 nM | 100% | 4.5 nM | 5.2 nM |  | 5.7 nM |  | 2 nM |  |  |  | luciferase production is not inhibited | 100% |  | 4.1 nM | 99.9% |  | 99.3% | 99.0% | luciferase activity is inhibited | EC50 ([8]; Human immunodeficiency virus 1, WT virus, MC assay): 4.3 nM; FC = EC50 (SDM)/EC50 (WT) ([8]; WT virus, MC assay): 1.0; FC = EC50 (SDM)/EC50 (WT) ([1]; V362I virus, MC assay): 1.0; FC = EC50 (SDM)/EC50 (WT) ([9]; V370A virus, MC assay): 1.0; FC = EC50 (SDM)/EC50 (WT) ([2]; V370M virus, MC assay): 1.0; FC = EC50 (SDM)/EC50 (WT) ([3]; ΔV370 virus, MC assay): 1.2; FC = EC50 (SDM)/EC50 (WT) ([4]; MC assay): 1.3; FC = EC50 (SDM)/EC50 (WT) ([6]; ΔT371 virus, MC assay): 0.5
